The source of these data is US11878975B2, “Substituted indole compounds useful as TLR inhibitors” (BRISTOL-MYERS SQUIBB COMPANY, priority 2017, dated 2024).

Holding throughout (assay type): cell-based
In one experiment the target is T1, human TLR7 (Homo sapiens, UniProt Q9NYK1).
T1 construct: host or cells: HEK-Blue cells
T1 sequence (Q9NYK1 27-1049): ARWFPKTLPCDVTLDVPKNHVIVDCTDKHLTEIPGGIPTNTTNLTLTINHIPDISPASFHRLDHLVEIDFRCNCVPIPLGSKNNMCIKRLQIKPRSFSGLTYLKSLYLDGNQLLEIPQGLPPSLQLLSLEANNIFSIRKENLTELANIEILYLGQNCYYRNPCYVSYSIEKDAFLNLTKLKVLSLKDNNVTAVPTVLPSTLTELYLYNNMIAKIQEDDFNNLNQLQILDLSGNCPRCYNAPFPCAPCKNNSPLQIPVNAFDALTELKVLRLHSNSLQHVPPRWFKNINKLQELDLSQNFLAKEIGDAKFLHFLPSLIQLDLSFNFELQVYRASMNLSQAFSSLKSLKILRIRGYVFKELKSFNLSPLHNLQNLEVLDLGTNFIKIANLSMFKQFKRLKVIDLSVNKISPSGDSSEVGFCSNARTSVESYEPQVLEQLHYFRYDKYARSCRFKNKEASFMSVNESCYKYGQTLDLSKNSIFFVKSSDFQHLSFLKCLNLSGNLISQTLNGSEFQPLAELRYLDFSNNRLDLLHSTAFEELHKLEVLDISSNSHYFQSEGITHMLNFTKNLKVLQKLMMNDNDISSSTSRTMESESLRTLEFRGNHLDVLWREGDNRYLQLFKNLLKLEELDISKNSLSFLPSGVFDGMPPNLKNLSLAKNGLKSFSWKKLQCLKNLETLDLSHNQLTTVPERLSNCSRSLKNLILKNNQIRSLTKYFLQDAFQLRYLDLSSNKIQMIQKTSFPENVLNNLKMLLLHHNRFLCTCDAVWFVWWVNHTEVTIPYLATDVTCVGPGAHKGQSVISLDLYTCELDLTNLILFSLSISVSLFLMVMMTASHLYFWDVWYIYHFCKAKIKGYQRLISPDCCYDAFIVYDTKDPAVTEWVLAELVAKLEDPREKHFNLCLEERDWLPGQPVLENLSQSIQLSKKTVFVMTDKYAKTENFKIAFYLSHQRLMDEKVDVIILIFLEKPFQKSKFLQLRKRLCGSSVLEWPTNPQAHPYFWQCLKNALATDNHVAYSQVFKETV
Nature of the experiment: TLR7 inhibition reporter assay (HEK-Blue cells, SEAP reporter, gardiquimod stimulation). The conditions noted are these: HEK-Blue cells overexpressing human TLR7, SEAP reporter, gardiquimod 7.5 μM. As for the experimental part: (§1) TLR7/8/9 Inhibition Reporter Assays
(§2) HEK-Blue™-cells (Invivogen) overexpressing human TLR7, TLR8 or TLR9 receptors were used for screening inhibitors of these receptors using an inducible SEAP (secreted embryonic alkaline phosphatase) reporter gene under the control of the IFN-β minimal promoter fused to five NF-κB and AP-1-binding sites. Briefly, cells are seeded into Greiner 384 well plates (15000 cells per well for TLR7, 20,000 for TLR8 and 25,000 for TLR9) and then treated with test compounds in DMSO to yield a final dose response concentration range of 0.05 nM-50 μM. After a 30 minute compound pre-treatment al room temperature, the cells are then stimulated with a TLR7 ligand (gardiquimod at a final concentration of 7.5 μM), TLR8 ligand (R848 at a final concentration of 15.9 μM) or TLR9 ligand (ODN2006 at a final concentration of 5 nM) to activate NF-κB and AP-1 which induce the production of SEAP. After a 22 hour incubation at 37° C., 5% CO2, SEAP levels are determined with the addition of HEK-Blue™ Detection reagent (Invivogen), a cell culture medium that allows for detection of SEAP, according to manufacturer's specifications. The percent inhibition is determined as the % reduction in the HEK-Blue signal present in wells treated with agonist plus DMSO alone compared to wells treated with a known inhibitor.

Another experiment addresses T2, human TLR8 (Homo sapiens, UniProt Q9NR97).
T2 construct: host or cells: HEK-Blue cells
T2 sequence (Q9NR97 27-1041): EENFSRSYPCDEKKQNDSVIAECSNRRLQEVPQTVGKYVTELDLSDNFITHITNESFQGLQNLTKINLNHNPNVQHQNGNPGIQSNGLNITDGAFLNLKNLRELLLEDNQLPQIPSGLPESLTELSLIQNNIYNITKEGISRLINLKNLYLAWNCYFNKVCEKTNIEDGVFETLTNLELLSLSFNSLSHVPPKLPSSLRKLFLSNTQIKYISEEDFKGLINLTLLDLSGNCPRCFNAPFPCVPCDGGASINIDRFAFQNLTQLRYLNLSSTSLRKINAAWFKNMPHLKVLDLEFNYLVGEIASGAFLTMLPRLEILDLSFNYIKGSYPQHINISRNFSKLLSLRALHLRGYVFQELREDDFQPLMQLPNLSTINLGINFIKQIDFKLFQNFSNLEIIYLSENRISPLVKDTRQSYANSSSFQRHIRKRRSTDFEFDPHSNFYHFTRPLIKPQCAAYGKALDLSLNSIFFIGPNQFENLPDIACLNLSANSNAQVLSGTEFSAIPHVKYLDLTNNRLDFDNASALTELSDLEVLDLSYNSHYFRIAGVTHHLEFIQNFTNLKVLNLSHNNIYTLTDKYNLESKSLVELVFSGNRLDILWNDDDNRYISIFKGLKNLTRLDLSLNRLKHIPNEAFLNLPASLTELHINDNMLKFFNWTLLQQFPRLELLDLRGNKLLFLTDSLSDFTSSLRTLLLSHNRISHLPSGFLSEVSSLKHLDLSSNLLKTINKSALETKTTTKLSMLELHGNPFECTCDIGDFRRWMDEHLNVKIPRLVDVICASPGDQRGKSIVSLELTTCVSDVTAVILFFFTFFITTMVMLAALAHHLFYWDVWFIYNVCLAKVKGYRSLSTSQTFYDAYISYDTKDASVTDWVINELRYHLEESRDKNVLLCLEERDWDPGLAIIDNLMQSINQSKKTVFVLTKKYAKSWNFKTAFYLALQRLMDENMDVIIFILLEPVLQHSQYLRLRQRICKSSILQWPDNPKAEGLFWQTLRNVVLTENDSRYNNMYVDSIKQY
Put plainly: TLR8 inhibition reporter assay (HEK-Blue cells, SEAP reporter, R848 stimulation). As to conditions: HEK-Blue cells overexpressing human TLR8, SEAP reporter, R848 15.9 μM. As for the experimental part: as §1, §2
Background: Reporter assays use an easily measured gene product as a stand-in for the process of interest.

The target in a further experiment is T3, human TLR9 (Homo sapiens, UniProt Q9NR96).
T3 construct: host or cells: HEK-Blue cells
T3 sequence (Q9NR96 26-1032): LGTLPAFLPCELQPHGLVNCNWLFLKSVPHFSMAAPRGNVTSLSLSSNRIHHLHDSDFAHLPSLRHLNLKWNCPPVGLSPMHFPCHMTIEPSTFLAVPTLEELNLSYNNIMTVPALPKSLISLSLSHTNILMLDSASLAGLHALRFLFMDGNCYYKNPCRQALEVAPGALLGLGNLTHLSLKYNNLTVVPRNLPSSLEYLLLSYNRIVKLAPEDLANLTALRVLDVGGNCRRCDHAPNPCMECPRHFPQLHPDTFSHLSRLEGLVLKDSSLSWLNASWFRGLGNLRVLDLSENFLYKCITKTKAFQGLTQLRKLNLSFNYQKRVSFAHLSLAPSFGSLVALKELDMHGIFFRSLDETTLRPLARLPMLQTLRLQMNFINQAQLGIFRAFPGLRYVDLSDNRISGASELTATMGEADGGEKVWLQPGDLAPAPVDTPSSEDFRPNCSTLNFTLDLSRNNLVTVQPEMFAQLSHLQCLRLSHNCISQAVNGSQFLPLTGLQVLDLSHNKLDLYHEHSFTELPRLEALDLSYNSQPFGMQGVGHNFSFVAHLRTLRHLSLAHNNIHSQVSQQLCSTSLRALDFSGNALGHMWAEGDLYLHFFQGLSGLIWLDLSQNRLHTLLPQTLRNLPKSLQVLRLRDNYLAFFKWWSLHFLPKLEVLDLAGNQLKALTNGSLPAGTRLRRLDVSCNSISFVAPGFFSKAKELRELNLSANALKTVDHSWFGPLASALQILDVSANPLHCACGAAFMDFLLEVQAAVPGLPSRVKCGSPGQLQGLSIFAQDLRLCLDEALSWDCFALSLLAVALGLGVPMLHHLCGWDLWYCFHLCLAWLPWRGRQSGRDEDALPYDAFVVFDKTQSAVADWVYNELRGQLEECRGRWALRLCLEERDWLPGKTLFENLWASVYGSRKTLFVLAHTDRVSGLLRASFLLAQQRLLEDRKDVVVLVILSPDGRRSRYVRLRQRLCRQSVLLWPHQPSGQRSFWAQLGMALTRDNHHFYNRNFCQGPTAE
Put plainly: TLR9 inhibition reporter assay (HEK-Blue cells, SEAP reporter, ODN2006 stimulation). The conditions noted are these: HEK-Blue cells overexpressing human TLR9, SEAP reporter, ODN2006 5 nM. As for the experimental part:
as §1, §2

As to `CNC1CCC(c2ccc3[nH]c(-c4cc(C)nc(C)c4)c(C(C)C)c3c2)CC1` (single isomer, unassigned) [Example 51], the IC50 on human TLR7 was 4 nM; at human TLR8, 11 nM; against human TLR9, 602 nM.
Taken in the same sequence, the figures for `CNC1CCC(c2ccc3[nH]c(-c4cc(C)nc(C)c4)c(C(C)C)c3c2)CC1` (single isomer, unassigned) [Example 52] were 0.42 nM, 1.8 nM and 331 nM.
Taken in the same sequence, the figures for `Cc1cc(-c2[nH]c3ccc(C4CCC(N(C)C)CC4)cc3c2C(C)C)cc(C)n1` (single isomer, unassigned) [Example 53] were 0.55 nM, 2.9 nM and 600 nM.
With `CNC1CCC(c2ccc3[nH]c(-c4cc(C)c5ncnn5c4)c(C(C)C)c3c2)CC1` (single isomer, unassigned) [Example 56], the IC50 came out at 0.17 nM on human TLR7, 0.81 nM at human TLR8 and 1370 nM at human TLR9.
As for `CNC1CCC(c2ccc3[nH]c(-c4cc(C)c5ncnn5c4)c(C(C)C)c3c2)CC1` (single isomer, unassigned) [Example 58], the IC50 against human TLR7 was found to be 2 nM; against human TLR8, 6.6 nM; on human TLR9 it was 3100 nM.
Taken in the same sequence, the figures for `CCN(C)C1CCC(c2ccc3[nH]c(-c4cc(OC)c5ncnn5c4)c(C(C)C)c3c2)CC1` (single isomer, unassigned) [Example 65] were 0.23 nM, 1.3 nM and 1150 nM.
`CCN(C)C1CCC(c2ccc3[nH]c(-c4cc(OC)c5ncnn5c4)c(C(C)C)c3c2)CC1` (single isomer, unassigned) [Example 66]: the figures for the IC50 at human TLR7, at human TLR8 and on human TLR9 were 0.85 nM, 4.4 nM and 1170 nM, respectively.
The matching figures for `COc1cc(-c2[nH]c3ccc(C4CCC(NCC(F)F)CC4)cc3c2C(C)C)cn2ncnc12` (single isomer, unassigned) [Example 67]: 0.17 nM, 1.3 nM and 5760 nM.
Taken in the same sequence, the figures for `COc1cc(-c2[nH]c3ccc(C4CCC(NCC(F)F)CC4)cc3c2C(C)C)cn2ncnc12` (single isomer, unassigned) [Example 68] were 0.85 nM, 6.8 nM and 11600 nM.
The matching figures for `COCCN(C)C1CCC(c2ccc3[nH]c(-c4cc(OC)c5ncnn5c4)c(C(C)C)c3c2)CC1` (single isomer, unassigned) [Example 72]: 0.3 nM, 1.2 nM and 1280 nM.
Take `COCCN(C)C1CCC(c2ccc3[nH]c(-c4cc(OC)c5ncnn5c4)c(C(C)C)c3c2)CC1` (single isomer, unassigned) [Example 79]: the IC50 against human TLR7 was 2 nM; against human TLR8, 5.7 nM; against human TLR9, 2580 nM.
The matching figures for `Cc1c(-c2[nH]c3ccc(C4CCC(NC5COC5)CC4)cc3c2C(C)C)cn2ncnc2c1C` (single isomer, unassigned) [Example 85]: 0.35 nM, 0.53 nM and 2880 nM.
Taken in the same sequence, the figures for `Cc1c(-c2[nH]c3ccc(C4CCC(NC5COC5)CC4)cc3c2C(C)C)cn2ncnc2c1C` (single isomer, unassigned) [Example 86] were 2 nM, 2.6 nM and 5220 nM.
The matching figures for `Cc1c(-c2[nH]c3ccc(C4CCC(N5CCOCC5)CC4)cc3c2C(C)C)cn2ncnc2c1C` (single isomer, unassigned) [Example 92]: 0.39 nM, 0.33 nM and 2680 nM.
Take `Cc1c(-c2[nH]c3ccc(C4CCC(N5CCOCC5)CC4)cc3c2C(C)C)cn2ncnc2c1C` (single isomer, unassigned) [Example 93]: the IC50 against human TLR7 was 3 nM; against human TLR8, 3.8 nM; on human TLR9, 3800 nM.

For orientation: IC50 means the concentration at which inhibition is half-maximal. Read a high IC50 as weaker potency.
